Where “and” joins values, the source holds several entries; their conditions need not be identical. Identical values can stand only once.
How the values were obtained:
[1] = test system: sAPP; assay: plasma sAPP total by ELISA pre- and post-acamprosate; assay type: in vivo, human; settings: individual patients 1-6, titled as diagnosed with FXS; after treatment
[2] = test system: drinking-in-the-dark mouse model; settings: cited from earlier work
[3] = test system: youths symptomatic for an autistic disorder; settings: mean dose 1,110 mg/day, 10 to 30 weeks; cited from earlier work
[4] = test system: youth with Fragile X Syndrome (FXS); assay: 10-week open-label trial of acamprosate in youth with FXS: behavioral outcome measures; assay type: in vivo, human; settings: for Aberrant Behavior Checklist-Social Avoidance (ABC-SA), end point mean ± SD: baseline 3.3 ± 2.6, p 0.01; for Clinical Global Impressions-Severity (CGI-S), end point mean ± SD: baseline 4.25 ± 0.45; for Clinical Global Impressions-Severity (CGI-S), end point mean ± SD / ADHD Rating Scale 4th Edition (ADHD-RS), end point mean ± SD: p <0.0001; for Aberrant Behavior Checklist-Social Withdrawal (ABC-SW), end point mean ± SD: baseline 8.8 ± 5.8, p 0.04 (Table 2), baseline 7.33 ± 5.2, p 0.014 (Table 5); for Aberrant Behavior Checklist-Hyperactivity (ABC-H), end point mean ± SD: baseline 16.8 ± 9.1, p 0.009; for ADHD Rating Scale 4th Edition (ADHD-RS), end point mean ± SD: baseline 23.6 ± 10.6; for Vineland Adaptive Behavior Scale (VABS) Communication Domain, end point mean ± SD: baseline 63.4 ± 10.1, p 0.03; for VABS Expressive Communication Subdomain, end point mean ± SD: baseline 69.8 ± 23.0, p 0.003; for Social Responsiveness Scale total score (SRS), end point mean ± SD: baseline 91.3 ± 27.4, p 0.005
Text: The Institutional Review Board (IRB) at an academic medical center approved this study. Thirteen outpatient males and females aged 5 to 17 years with body weight 15 kg were recruited for this study. Written informed consent was obtained from each participant's legal guardian (parent for all children in this report), and subjects provided assent when able. Diagnosis of FXS was confirmed by Southern Blot and PCR results consistent with a greater than 200 CGG repeat expansion in the FMR1 gene with at least partial gene methylation. Subjects had to be free of other significant medical conditions. The concomitant use of psychotropic drugs that are not thought to impact glutamate neurotransmission were allowed so long as the patients experienced stable dosing at least 4 weeks prior to baseline. Subjects were required to have a mental age of greater than 18 months as determined by the Stanford-Binet 5th Edition. Additional inclusion criteria included a CGI-S(Guy 1976) score of at least 4 (“Moderately Ill”). Subjects with a Diagnostic and Statistical Manual of Mental Disorders, 4th Edition, Text Revision (DSM-IV-TR) diagnosis of a psychotic disorder, bipolar disorder, or substance use disorder were excluded from the study. Additionally, subjects with a positive urine pregnancy test, creatinine clearance of <30, active seizure disorder, or other significant medical condition were excluded.
A 10-week, prospective, open-label study design was chosen to gather pilot data for potential future larger-scale, double-blind, placebo-controlled studies in this population.
All subjects underwent a screening and baseline visit followed by follow-up visits every 2 weeks during the 10-week open-label trial period. At the end of weeks 1, 3, and 5 the investigators called the parent to assess drug tolerability and to make dose adjustments as indicated. All subjects received 333 mg/day of acamprosate during the first week of the study. The investigators then increased the dosage to a maximum of 1,998 mg/day (weight>50 kg) or 1,332 mg/day (weight<50 kg) over the first six weeks of the study, if optimal clinical response (CGI-I equal to 1 “very much improved”) had not occurred and intolerable adverse effects had not emerged. The dose maintenance phase lasted 4 weeks at the optimal dosage.
The CGI-S assessment was administered at screen and at baseline as part of the eligibility criteria described above. In this study, the rater scored the CGI-S in regard to severity of symptoms commonly noted in FXS including, but not limited to, inattention/hyperactivity, social impairment, communication impairment, repetitive behavior, irritability, and anxiety. The CGI-S is rated on a scale from 1 to 7 (1=normal, not ill at all; 2=borderline ill; 3=mildly ill; 4=moderately ill; 5=markedly ill; 6=severely ill; 7=among the most extremely ill patients with FXS). The Autism Diagnostic Observation Schedule (ADOS) (Lord, Rutter et al. 1989) was administered at baseline to characterize potential concomitant ASD diagnosis.
The primary outcome measure was the CGI-I. The CGI-I is a scale designed to assess global change from baseline. […] Treatment response was defined by a CGI-I score of 1 “very much improved” or 2 “much improved.” In this study, the CGI-I was utilized as a general global primary outcome measure given the uncertainty as to what specific symptoms/behaviors associated with FXS may be expected to improve or worsen with use of acamprosate. The CGI-I was administered at all visits after baseline.
Secondary outcome measures included all subscales of the ABC (Irritability, Social Withdrawal, Stereotypy, Hyperactivity, and Inappropriate Speech). The ABC is an informant-rated (primary caregiver) measure with confirmed reliability and validity with regard to factor structure, distribution of scores, and sensitivity to change in persons with developmental disability (Aman, Singh et al. 1985). […]

[5] = test system: adult males with FXS; settings: of 3 adult males with FXS, cited from earlier work
[6] = test system: NMDA glutamate receptor; settings: animal studies; cited from earlier work
[7] = FXS, 10 weeks, listed as Acamprosate
[8] = baseline to endpoint, FXS, p=0.01
[9] = mean change from baseline to endpoint divided by SD at baseline, FXS

## CC(=O)NCCCS(=O)(=O)O.[Ca] [acamprosate, Calcium Acetylhomotaurine]
[1]
  sAPP (total)-CP, Week 12: 5.561 ng/mL and 25.16 ng/mL and 12.84 ng/mL and 8.077 ng/mL and 56.8 ng/mL and 7.547 ng/mL
[2]
  alcohol intake: reduced alcohol intake
[3]
  youths judged treatment responders: five of six
[4]; 12 youth with FXS, 10 weeks, mean final dose 1054 mg/day
  treatment responders (CGI-I score of 1 or 2): 75%
[4]; 12 youth with FXS, scale 1-7
  mean CGI-I at endpoint: 1.9
[4]; FXS trial, week 10
  mean CGI-I values for the responders at week 10: 1.92
[4]; FXS, 10 weeks
  PPVT scores, change with treatment: did not significantly change
  SRS Social Awareness and Autistic Mannerisms subscales, change with treatment: Improvement was not noted
  other VABS domains, change with treatment: No other changes with treatment were noted
  other subscales of the ABC and the CY-BOCS-PDD, change during treatment: did not change significantly
  Aberrant Behavior Checklist-Social Avoidance (ABC-SA), end point mean ± SD: 1.6
  Clinical Global Impressions-Severity (CGI-S), end point mean ± SD: 3.33
  Aberrant Behavior Checklist-Social Withdrawal (ABC-SW), end point mean ± SD: 4.1
  Aberrant Behavior Checklist-Hyperactivity (ABC-H), end point mean ± SD: 11.0
  ADHD Rating Scale 4th Edition (ADHD-RS), end point mean ± SD: 16.7
  Vineland Adaptive Behavior Scale (VABS) Communication Domain, end point mean ± SD: 66.6
  VABS Expressive Communication Subdomain, end point mean ± SD: 78.9
  Social Responsiveness Scale total score (SRS), end point mean ± SD: 76.4
[4]; [7]
  Aberrant Behavior Checklist-Social Avoidance (ABC-SA), end point mean ± SD: 1.6 ± 2.7
  Clinical Global Impressions-Severity (CGI-S), end point mean ± SD: 3.33 ± 0.5 and 3.33 ± 0.49
  Aberrant Behavior Checklist-Social Withdrawal (ABC-SW), end point mean ± SD: 4.1 ± 6.5
  Aberrant Behavior Checklist-Hyperactivity (ABC-H), end point mean ± SD: 11.0 ± 8.6
  ADHD Rating Scale 4th Edition (ADHD-RS), end point mean ± SD: 16.7 ± 8
  Vineland Adaptive Behavior Scale (VABS) Communication Domain, end point mean ± SD: 66.6 ± 11.2
  VABS Expressive Communication Subdomain, end point mean ± SD: 78.9 ± 21.2
  Social Responsiveness Scale total score (SRS), end point mean ± SD: 76.4 ± 26.8 and 76.42 ± 26.8
[4]; FXS, 10 weeks, baseline 5.2 ± 3.5, p 0.61
  Aberrant Behavior Checklist-Inappropriate Speech (ABC-IS), end point mean ± SD: 4.8 ± 3.4
[4]; FXS, 10 weeks, baseline 6.8 ± 6.8, p 0.09
  Aberrant Behavior Checklist-Stereotypy (ABC-S), end point mean ± SD: 6 ± 6.3
[4]; FXS, 10 weeks, baseline 9.9 ± 7.8, p 0.11
  Aberrant Behavior Checklist-Irritability (ABC-I), end point mean ± SD: 7.0 ± 8.9
[4]; FXS, 10 weeks, baseline 11.1 ± 2.6, p 0.15
  Children's Yale-Brown Obsessive Compulsive Scale Modified for PDD (CY-BOCS-PDD), end point mean ± SD: 9.8 ± 4.1
[4]; FXS, 10 weeks, baseline 85.2 ± 32.0, p 0.53
  Peabody Picture Vocabulary Test (PPVT), end point mean ± SD: 83.3 ± 32
[4]; baseline to endpoint, FXS
  decline of mean ABC-H score: 35%
  decline of mean ABC-SA score: 51%
  decline of mean ABC-SW score: 53%
  decline of mean ADHD-RS score: 29%
  decline of mean total SRS raw score: 16%
  improvement of mean VABS Communication Domain standard score: 5%
  improvement of mean VABS Expressive Communication score: 13%
[4]; baseline to endpoint, FXS, p=0.003
  decline of SRS Social Motivation subscale: 28%
[4]; [8]
  decline of SRS Social Cognition subscale: 19%
  decline of SRS Social Communication subscale: 14%
[4]; [9]
  Effect Size, ABC-H: 0.64
  Effect Size, ABC-SA: 0.64
  Effect Size, ABC-SW: 0.81
  Effect Size, ADHD-RS: 0.65
  Effect Size, CGI-S: 2.0
  Effect Size, SRS total score: 0.54
  Effect Size, VABS Communication Domain: 0.3
  Effect Size, VABS Expressive Communication Subdomain: 0.4
[4]; mean change from baseline to endpoint divided by SD at baseline, FXS, listed as Acamprosate
  Effect Size, VABS Communication Domain: 0.32
[4]; of 12 youth with FXS
  treatment responders, number of subjects: 9
[5]
  subjects with non-treatment limiting gastrointestinal distress (emesis and/or nausea): Two subjects
[5]; mean dose 1,221 mg/day, mean duration 21.3 weeks
  subjects with significant positive clinical response as measured by the CGI-I: 3
[6]
  action at the NMDA glutamate receptor: bind and act as an antagonist
